Assay results: patent US8722849B2, “Polypeptides” (Novo Nordisk A/S, priority 2011, dated 2014)
In brackets after ≈: the same amount, converted by molar mass. Read-outs that look alike come from different tables or passages of the source. Starred links: 1 amine or outer side, 2 acyl side, 3 side chain; linkers in the order of their positions; H or OH if unused. Positions of bridges follow the written chain, without caps; N, C: chain ends. Residues, ends and D or L forms follow the SMILES beside them. Groups on a side chain read outwards from the residue. *: point of attachment. C20 diacid = O=C(O)CCCCCCCCCCCCCCCCCCC(=O)*; γGlu = O=C(O)[C@H](CCC(=O)[*:2])N[*:1]; AEEA = NCCOCCOCC(=O)O

Test: Assay (IV) determination of solubility
Format: physicochemical
Experimental: ASSAY (IV)—Determination of Solubility
The polypeptide was dissolved in water at ˜500 nmol/ml and mixed 1:1 with a series of buffers (100 mM glycylglycine pH 3.0, 100 mM glycylglycine pH 4.0, 100 mM glycylglycine pH 5.0, 100 mM bistrispropane pH 6.0, 100 mM bistrispropane pH 6.5, 100 mM bistrispropane pH 7.0, 100 mM bistrispropane pH 7.5, 100 mM bistrispropane pH 8.0). After 18 hours at room temperature the samples were centrifuged and the polypeptide concentration determined by HPLC.

[1] = pH 3, pH 3.0, read-out: Solubility pH 3.0
[2] = pH 4, pH 4.0, read-out: Solubility pH 4.0
[3] = pH 5, pH 5.0, read-out: Solubility pH 5.0
[4] = pH 6, pH 6.0, read-out: Solubility pH 6.0
[5] = pH 6.5, pH 6.5, read-out: Solubility pH 6.5
[6] = pH 7, pH 7.0, read-out: Solubility pH 7.0
[7] = pH 7.5, pH 7.5, read-out: Solubility pH 7.5
[8] = pH 4, pH 4.0, 18 hours at room temperature, Table 2, read-out: Solubility pH 4.0

solubility [1] [µM] | solubility [2] [µM] | solubility [3] [µM] | solubility [4] [µM] | solubility [5] [µM] | solubility [6] [µM] | solubility [7] [µM] | solubility (pH 8, pH 8.0, read-out: Solubility pH 8.0) [µM] | solubility [8] [µM] | Structure (SMILES)
> 200 | > 200 | 104 (≈ 496 µg/mL) | 2 (≈ 9.53 µg/mL) | 1 (≈ 4.77 µg/mL) | 1 (≈ 4.77 µg/mL) | 1 (≈ 4.77 µg/mL) | – | > 200 | CC[C@H](C)[C@H](NC(=O)[C@H](CCCCNC(=O)COCCOCCNC(=O)COCCOCCNC(=O)CC[C@H](NC(=O)CCCCCCCCCCCCCCCCCCC(=O)O)C(=O)O)NC(=O)CNC(=O)[C@H](Cc1ccccc1)NC(=O)[C@H](CC(N)=O)NC(=O)[C@H](CC(N)=O)NC(=O)[C@H](CO)NC(=O)[C@H](CO)NC(=O)[C@H](Cc1c[nH]cn1)NC(=O)[C@H](Cc1c[nH]cn1)NC(=O)[C@H](CC(C)C)NC(=O)[C@H](Cc1ccccc1)NC(=O)[C@H](CC(N)=O)NC(=O)[C@H](C)NC(=O)[C@H](CC(C)C)NC(=O)[C@H](CCCNC(=N)N)NC(=O)[C@H](CCC(N)=O)NC(=O)[C@@H](NC(=O)[C@H](C)NC(=O)[C@@H]1CSSC[C@H](NC(=O)[C@@H](N)CCCCN)C(=O)N[C@@H](CC(N)=O)C(=O)N[C@@H]([C@@H](C)O)C(=O)N[C@@H](C)C(=O)N[C@@H]([C@@H](C)O)C(=O)N1)[C@@H](C)O)C(=O)N[C@@H](CC(C)C)C(=O)N[C@@H](CO)C(=O)N[C@@H](CO)C(=O)N[C@H](C(=O)N[C@@H](CC(N)=O)C(=O)N[C@H](C(=O)NCC(=O)N[C@@H](CO)C(=O)N[C@@H](Cc1c[nH]cn1)C(=O)N[C@H](C(=O)N[C@@H](Cc1ccc(O)cc1)C(N)=O)[C@@H](C)O)C(C)C)[C@@H](C)O [Example 140, N-epsilon25-[2-(2-{2-[2-(2-{2-[(S)-4-Carboxy-4-(19-carboxyheptadecanoylamino)butyrylamino]ethoxy}ethoxy)acetylamino]ethoxy}ethoxy)acetyl]-[His17,Lys25,Ser28,Ser29,His35]-pramlintide] (H-KCNTATCATQRLANFLHHSSNNFGK([AEEA-AEEA-γGlu-C20 diacid])ILSSTNVGSHTY-NH2; disulfide 2-7)
> 200 | > 200 | 185 (≈ 884 µg/mL) | 118 (≈ 564 µg/mL) | 1 (≈ 4.78 µg/mL) | 1 (≈ 4.78 µg/mL) | 1 (≈ 4.78 µg/mL) | – | > 200 | CC[C@H](C)[C@H](NC(=O)[C@H](CCCCNC(=O)COCCOCCNC(=O)COCCOCCNC(=O)CC[C@H](NC(=O)CCCCCCCCCCCCCCCCCCC(=O)O)C(=O)O)NC(=O)CNC(=O)[C@H](Cc1ccccc1)NC(=O)[C@H](CC(N)=O)NC(=O)[C@H](CC(N)=O)NC(=O)[C@H](CO)NC(=O)[C@H](CO)NC(=O)[C@H](Cc1c[nH]cn1)NC(=O)[C@H](Cc1c[nH]cn1)NC(=O)[C@H](CC(C)C)NC(=O)[C@H](Cc1ccccc1)NC(=O)[C@H](CCC(=O)O)NC(=O)[C@H](C)NC(=O)[C@H](CC(C)C)NC(=O)[C@H](CCCNC(=N)N)NC(=O)[C@H](CCC(N)=O)NC(=O)[C@@H](NC(=O)[C@H](C)NC(=O)[C@@H]1CSSC[C@H](NC(=O)[C@@H](N)CCCCN)C(=O)N[C@@H](CC(N)=O)C(=O)N[C@@H]([C@@H](C)O)C(=O)N[C@@H](C)C(=O)N[C@@H]([C@@H](C)O)C(=O)N1)[C@@H](C)O)C(=O)N[C@@H](CC(C)C)C(=O)N[C@@H](CO)C(=O)N[C@@H](CO)C(=O)N[C@H](C(=O)N[C@@H](CC(N)=O)C(=O)N[C@H](C(=O)NCC(=O)N[C@@H](CO)C(=O)N[C@@H](Cc1c[nH]cn1)C(=O)N[C@H](C(=O)N[C@@H](Cc1ccc(O)cc1)C(N)=O)[C@@H](C)O)C(C)C)[C@@H](C)O [Example 142, N-epsilon25-[2-(2-{2-[2-(2-{2-[(S)-4-Carboxy-4-(19-carboxyheptadecanoylamino)butyrylamino]ethoxy}ethoxy)acetylamino]ethoxy}ethoxy)acetyl]-[Glu14,His17,Lys25,Ser28,Ser29,His35]-pramlintide] (H-KCNTATCATQRLAEFLHHSSNNFGK([AEEA-AEEA-γGlu-C20 diacid])ILSSTNVGSHTY-NH2; disulfide 2-7)

The remaining lines, values behind:

Structure (SMILES) | solubility [1] [µM] | solubility [2] [µM] | solubility [3] [µM] | solubility [4] [µM] | solubility [5] [µM] | solubility [6] [µM] | solubility [7] [µM] | solubility (pH 8, pH 8.0, read-out: Solubility pH 8.0) [µM] | solubility [8] [µM]
CC[C@H](C)[C@H](NC(=O)[C@H](CCCCNC(=O)COCCOCCNC(=O)COCCOCCNC(=O)CC[C@H](NC(=O)CCCCCCCCCCCCCCCCCCC(=O)O)C(=O)O)NC(=O)CNC(=O)[C@H](Cc1ccccc1)NC(=O)[C@H](CC(N)=O)NC(=O)[C@H](Cc1c[nH]cn1)NC(=O)[C@H](CO)NC(=O)[C@H](CO)NC(=O)[C@H](Cc1c[nH]cn1)NC(=O)[C@H](Cc1c[nH]cn1)NC(=O)[C@H](CC(C)C)NC(=O)[C@H](Cc1ccccc1)NC(=O)[C@H](CC(N)=O)NC(=O)[C@H](C)NC(=O)[C@H](CC(C)C)NC(=O)[C@H](CCCNC(=N)N)NC(=O)[C@H](CCC(N)=O)NC(=O)[C@@H](NC(=O)[C@H](C)NC(=O)[C@@H]1CSSC[C@H](NC(=O)[C@@H](N)CCCCN)C(=O)N[C@@H](CC(N)=O)C(=O)N[C@@H]([C@@H](C)O)C(=O)N[C@@H](C)C(=O)N[C@@H]([C@@H](C)O)C(=O)N1)[C@@H](C)O)C(=O)N[C@@H](CC(C)C)C(=O)N[C@@H](CO)C(=O)N[C@@H](CO)C(=O)N[C@H](C(=O)N[C@@H](CC(N)=O)C(=O)N[C@H](C(=O)NCC(=O)N[C@@H](CO)C(=O)N[C@@H](Cc1c[nH]cn1)C(=O)N[C@H](C(=O)N[C@@H](Cc1ccc(O)cc1)C(N)=O)[C@@H](C)O)C(C)C)[C@@H](C)O [Example 134, N-epsilon25-[2-(2-{2-[2-(2-{2-[(S)-4-Carboxy-4-(19-carboxyheptadecanoylamino)butyrylamino]ethoxy}ethoxy)acetylamino]ethoxy}ethoxy)acetyl]-[His17,His21,Lys25,Ser28,Ser29.His35]-pramlintide] (H-KCNTATCATQRLANFLHHSSHNFGK([AEEA-AEEA-γGlu-C20 diacid])ILSSTNVGSHTY-NH2; disulfide 2-7) | > 200 | > 200 | > 200 | 3 (≈ 14.4 µg/mL) | 1 (≈ 4.79 µg/mL) | 2 (≈ 9.58 µg/mL) | 3 (≈ 14.4 µg/mL) | 2 (≈ 9.58 µg/mL) | –
CC[C@H](C)[C@H](NC(=O)[C@@H]1CCCN1C(=O)CNC(=O)[C@H](Cc1ccccc1)NC(=O)[C@H](CC(N)=O)NC(=O)[C@H](CCCCNC(=O)COCCOCCNC(=O)COCCOCCNC(=O)CC[C@H](NC(=O)CCCCCCCCCCCCCCCCCCC(=O)O)C(=O)O)NC(=O)[C@H](CO)NC(=O)[C@H](CO)NC(=O)[C@H](Cc1c[nH]cn1)NC(=O)[C@H](Cc1c[nH]cn1)NC(=O)[C@H](CC(C)C)NC(=O)[C@H](Cc1ccccc1)NC(=O)[C@H](CC(N)=O)NC(=O)[C@H](C)NC(=O)[C@H](CC(C)C)NC(=O)[C@H](CCCNC(=N)N)NC(=O)[C@H](CCC(N)=O)NC(=O)[C@@H](NC(=O)[C@H](C)NC(=O)[C@@H]1CSSC[C@H](NC(=O)[C@@H](N)CCCCN)C(=O)N[C@@H](CC(N)=O)C(=O)N[C@@H]([C@@H](C)O)C(=O)N[C@@H](C)C(=O)N[C@@H]([C@@H](C)O)C(=O)N1)[C@@H](C)O)C(=O)N[C@@H](CC(C)C)C(=O)N[C@@H](CO)C(=O)N1CCC[C@H]1C(=O)N[C@H](C(=O)N[C@@H](CC(N)=O)C(=O)N[C@H](C(=O)NCC(=O)N[C@@H](CO)C(=O)N[C@@H](Cc1c[nH]cn1)C(=O)N[C@H](C(=O)N[C@@H](Cc1ccc(O)cc1)C(N)=O)[C@@H](C)O)C(C)C)[C@@H](C)O [Example 141, N-epsilon21-[2-(2-{2-[2-(2-{2-[(S)-4-Carboxy-4-(19-carboxyheptadecanoylamino)butyrylamino]ethoxy}ethoxy)acetylamino]ethoxy}ethoxy)acetyl]-[His17,Lys21,Ser28,His35]-pramlintide] (H-KCNTATCATQRLANFLHHSSK([AEEA-AEEA-γGlu-C20 diacid])NFGPILSPTNVGSHTY-NH2; disulfide 2-7) | > 200 | > 200 | > 200 | 84 (≈ 400 µg/mL) | 3 (≈ 14.3 µg/mL) | 2 (≈ 9.52 µg/mL) | 1 (≈ 4.76 µg/mL) | – | –
CC[C@H](C)[C@H](NC(=O)[C@@H]1CCCN1C(=O)CNC(=O)[C@H](Cc1ccccc1)NC(=O)[C@H](CC(N)=O)NC(=O)[C@H](CCCCNC(=O)COCCOCCNC(=O)COCCOCCNC(=O)CC[C@H](NC(=O)CCCCCCCCCCCCCCCCCCC(=O)O)C(=O)O)NC(=O)[C@H](CO)NC(=O)[C@H](CO)NC(=O)[C@H](Cc1c[nH]cn1)NC(=O)[C@H](Cc1c[nH]cn1)NC(=O)[C@H](CC(C)C)NC(=O)[C@H](Cc1ccccc1)NC(=O)[C@H](CCC(=O)O)NC(=O)[C@H](C)NC(=O)[C@H](CC(C)C)NC(=O)[C@H](CCCNC(=N)N)NC(=O)[C@H](CCC(N)=O)NC(=O)[C@@H](NC(=O)[C@H](C)NC(=O)[C@@H]1CSSC[C@H](NC(=O)[C@@H](N)CCCCN)C(=O)N[C@@H](CC(N)=O)C(=O)N[C@@H]([C@@H](C)O)C(=O)N[C@@H](C)C(=O)N[C@@H]([C@@H](C)O)C(=O)N1)[C@@H](C)O)C(=O)N[C@@H](CC(C)C)C(=O)N[C@@H](CO)C(=O)N1CCC[C@H]1C(=O)N[C@H](C(=O)N[C@@H](CC(N)=O)C(=O)N[C@H](C(=O)NCC(=O)N[C@@H](CO)C(=O)N[C@@H](Cc1c[nH]cn1)C(=O)N[C@H](C(=O)N[C@@H](Cc1ccc(O)cc1)C(N)=O)[C@@H](C)O)C(C)C)[C@@H](C)O [Example 144, N-epsilon21-[2-(2-{2-[2-(2-{2-[(S)-4-Carboxy-4-(19-carboxyheptadecanoylamino)butyrylamino]ethoxy}ethoxy)acetylamino]ethoxy}ethoxy)acetyl]-[Glu14,His17,Lys21,Ser28,His35]-pramlintide] (H-KCNTATCATQRLAEFLHHSSK([AEEA-AEEA-γGlu-C20 diacid])NFGPILSPTNVGSHTY-NH2; disulfide 2-7) | > 200 | > 200 | > 200 | 47 (≈ 224 µg/mL) | 2 (≈ 9.55 µg/mL) | 1 (≈ 4.77 µg/mL) | 1 (≈ 4.77 µg/mL) | – | > 200
